Results taken from patent US4824669A, “Formulations of coenzyme Q10 for intravenous use” (Board of Regents, The University of Texas System, priority 1987, dated 1989).
Where two headings read alike, the source gives them in different places.

Tests used:
[1] = blood levels on daily oral administration of CoQ10 capsules to patients; type: in vivo, human; conditions: if a blood level of 3 μg/ml of whole blood is achieved on oral therapy
Method: It is known from the existing clinical data from the daily oral administration of 100 mg of CoQ10 to patients (3 capsules of 33.3 mg each in soybean oil), that blood levels in the range of about 2-4 μg/ml whole blood may be achieved. These blood levels on daily oral administration of 3 capsules vary between about 1.5 and 4 μg/ml whole blood, depending upon the initial control level, the variation of oral absorption, patient compliance, etc. If a blood level of 3 μg/ml of whole blood is achieved on therapy, the amount of CoQ10 in the total blood volume would be about 15 mg. The gastrointestinal absorption of CoQ10 from 3 capsules/day is about 15% or 15-20% according to Lucker et al. (citation under Background of the Invention). However, as mentioned earlier herein, oral administration of CoQ10 is undependable and sometimes difficult.

[2] = visible separation / stability of CoQ10 in commercial fat emulsions; type: physicochemical
Method: A preferred technique of preparing formulations of the present invention involved adding 1 ml of a fat emulsion such as Intralipid, Liposyn, Soyacal, and Travemulsion to each of three tubes. With a microsyringe, 1 μl of soybean oil containing 30 μg, 15 μg and 7.5 μg of CoQ10, respectively, was added to each of the three tubes containing 1 ml the fat emulsion. The microliter of soybean oil containing these three amounts of CoQ10 was easily visible by the yellow color on the surface of the fat emulsion. The contents of these tubes were cooled to less than about 5° C. and were then sonicated for about 5 seconds in an ice bath. The sonicated CoQ10 -fat emulsion was then drawn into a first syringe through the syringe needle. The needle of the first syringe was then connected to the needle of a second syringe. The CoQ10 -fat emulsion was then passed back and forth through the needles from the first syringe to the second syringe, and this mixing was repeated about 10 times. The needles of the two syringes were connected through a rubber stopper or a tubing, which sufficed for this laboratory scale preparation.

[3] = blood CoQ10 levels expected after intravenous administration of CoQ10-fat emulsions; type: in vivo, human; conditions: i.v., control 5 mg
Method: The intravenous formulations of the present invention may be used, for example, to introduce 15 mg, 10 mg and 5 mg of CoQ10 into the total body blood volume by intravenous administration of about 500 ml containing 30 μg/ml, 15 μg/ml and 7.5 μg/ml, respectively, of CoQ10. On the basis that the control blood level of CoQ10 /total body volume is 5 mg, then the total body volume would contain 20 mg, 15 mg, and 10 mg, respectively, after the intravenous administration of the three formulations.
These three particular exemplary formulations of the present invention will allow the introduction of CoQ10 into the blood of patients to levels of 2, 3 and 4 μg/ml, respectively, for a total amount of CoQ10 /total body volume of blood of, for example, about 10, 15 and 20 mg, respectively.

[4] = oral, cited from earlier work; for absorption (in words): human subjects
[5] = 100 mg daily (3 capsules of 33.3 mg in soybean oil), patients; cited from earlier work
[6] = oral, coronary artery by-pass graft surgery; Sunamori et al.; cited from earlier work
[7] = soybean oil in soft gelatin capsules; cited from earlier work
[8] = clinical use; cited from earlier work
[9] = solid particle dispersions in aqueous medium; cited from earlier work

amount of CoQ10 in the total blood volume [1]: about 15 mg | separation of CoQ10 from the emulsion ([2]; 30, 15 and 7.5 μg/ml of commercial fat emulsion, sonicated and passed through syringe needles): did not visibly separate to the surface | stability of emulsions at high CoQ10 level ([2]; CoQ10 levels above about 30 μg/ml): tend to be unstable | CoQ10 in total body blood volume after intravenous administration ([3]; about 500 ml containing 7.5 μg/ml): 10 mg | CoQ10 in total body blood volume after intravenous administration ([3]; about 500 ml containing 30 μg/ml): 20 mg
SMILES: COC1=C(OC)C(=O)C(C/C=C(\C)CC/C=C(\C)CC/C=C(\C)CC/C=C(\C)CC/C=C(\C)CC/C=C(\C)CC/C=C(\C)CC/C=C(\C)CC/C=C(\C)CCC=C(C)C)=C(C)C1=O [CoQ10, 2,3-dimethoxy-5-methyl-6-decaprenyl benzoquinone]
stability of simple combination with commercial fat emulsion ([2]; simple combination of CoQ10 with one of the commercial fat emulsions): unstable formulations from which the CoQ10 would too readily separate | absorption (in words) [4]: very slow absorption | absorption (in words) ([4]; listed as coenzyme Q10): slow and inefficient | overall absorption of orally administered CoQ10 ([4]; human, Lucker et al.): 10-20% | orally administered dose recovered from the feces ([4]; study period of 10 days): ≤ 62% | blood levels on daily oral administration [5]: 2-4 μg/ml whole blood | tissue concentrations of CoQ10 (in words) [6]: failed to allow satisfactory tissue concentrations of CoQ10 | stability in encapsulated soybean oil [7]: up to 6 years | clinical safety record [8]: clinical record of safety of over a decade | settling on standing [9]: particles containing CoQ10 fall to the bottom of the container
